Results from patent US20040156869A1, “2-substituted quinazolin-4-ylamine analogues” (Neurogen Corporation, priority 2002, published 2004).

These compounds were tested against human capsaicin receptor (VR1) (Homo sapiens, UniProt Q8NER1) (assay: Capsaicin receptor binding assay ([3H]RTX competition, VR1-transfected HEK293 membranes)). Conditions: not given.
Sequence of human capsaicin receptor (VR1) (Q8NER1 whole entry): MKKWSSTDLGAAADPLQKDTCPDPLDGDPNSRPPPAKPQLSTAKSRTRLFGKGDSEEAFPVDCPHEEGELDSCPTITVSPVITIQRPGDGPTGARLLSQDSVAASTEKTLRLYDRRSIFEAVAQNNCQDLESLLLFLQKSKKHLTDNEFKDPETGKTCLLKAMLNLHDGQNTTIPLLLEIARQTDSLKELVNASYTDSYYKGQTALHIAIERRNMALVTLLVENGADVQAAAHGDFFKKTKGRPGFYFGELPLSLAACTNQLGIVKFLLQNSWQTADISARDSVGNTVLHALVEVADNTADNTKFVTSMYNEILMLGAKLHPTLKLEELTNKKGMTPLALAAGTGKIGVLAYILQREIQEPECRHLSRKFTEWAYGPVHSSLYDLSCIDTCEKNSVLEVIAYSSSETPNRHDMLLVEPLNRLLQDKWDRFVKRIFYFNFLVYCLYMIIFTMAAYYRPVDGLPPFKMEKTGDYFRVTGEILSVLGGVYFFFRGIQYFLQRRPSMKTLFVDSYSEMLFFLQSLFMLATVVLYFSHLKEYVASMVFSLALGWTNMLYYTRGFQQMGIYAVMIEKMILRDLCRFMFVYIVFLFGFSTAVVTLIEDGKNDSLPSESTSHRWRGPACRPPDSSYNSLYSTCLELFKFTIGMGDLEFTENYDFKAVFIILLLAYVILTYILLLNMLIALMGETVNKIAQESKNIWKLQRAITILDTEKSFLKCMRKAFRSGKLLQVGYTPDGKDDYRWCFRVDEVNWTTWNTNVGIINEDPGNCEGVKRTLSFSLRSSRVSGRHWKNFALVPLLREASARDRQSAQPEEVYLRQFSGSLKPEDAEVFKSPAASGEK

| Ki | SMILES |
| --- | --- |
| < 1 µM | OC1CCCN(CCCc2nc(Nc3ccc(C(F)(F)F)cc3)c3ccc(-c4ncccc4C(F)(F)F)cc3n2)C1 (centres unmarked) [Compound 571, 1-{3-[4-(4-Trifluoromethyl-phenylamino)-7-(3-trifluoromethyl-pyridin-2-yl)-quinazolin-2-yl]-propyl}piperidin-3-ol] |
| < 1 µM | CC1CCCN(CCCc2nc(Nc3ccc(C(F)(F)F)cc3)c3ccc(-c4ncccc4C(F)(F)F)cc3n2)C1 (centres unmarked) [Compound 572, [2-[3-(3-Methyl-piperidin-1-yl)-propyl]-7-(3-trifluoromethyl-pyridin-2-yl)-quinazolin-4-yl]-(4-trifluoromethyl-phenyl)-amine] |
| < 1 µM | CN1CCN(CCCc2nc(Nc3ccc(C(F)(F)F)cc3)c3ccc(-c4ncccc4C(F)(F)F)cc3n2)CC1 [Compound 573, [2-[3-(4-Methyl-piperazin-1-yl)-propyl]-7-(3-trifluoromethyl-pyridin-2-yl)-quinazolin-4-yl]-(4-trifluoromethyl-phenyl)-amine] |
| < 1 µM | FC(F)(F)c1ccc(Nc2nc(CNCc3ccccc3)nc3cc(-c4ncccc4C(F)(F)F)ccc23)cn1 [Compound 574, [2-(Benzylamino-methyl)-7-(3-trifluoromethyl-pyridin-2-yl)-quinazolin-4-yl]-(6-trifluoromethyl-pyridin-3-yl)-amine] |
| < 1 µM | CN(Cc1ccccc1)Cc1nc(Nc2ccc(C(F)(F)F)nc2)c2ccc(-c3ncccc3C(F)(F)F)cc2n1 [Compound 575, [2-[(Benzyl-methyl-amino)-methyl]-7-(3-trifluoromethyl-pyridin-2-yl)-quinazolin-4-yl]-(6-trifluoromethyl-pyridin-3-yl)-amine] |
| < 1 µM | COc1ccccc1CNCc1nc(Nc2ccc(C(F)(F)F)nc2)c2ccc(-c3ncccc3C(F)(F)F)cc2n1 [Compound 576, [2-[(2-Methoxy-benzylamino)-methyl]-7-(3-trifluoromethyl-pyridin-2-yl)-quinazolin-4-yl]-(6-trifluoromethyl-pyridin-3-yl)-amine] |
| < 1 µM | COc1ccc(CNCc2nc(Nc3ccc(C(F)(F)F)nc3)c3ccc(-c4ncccc4C(F)(F)F)cc3n2)cc1 [Compound 577, [2-[(4-Methoxy-benzylamino)-methyl]-7-(3-trifluoromethyl-pyridin-2-yl)-quinazolin-4-yl]-(6-trifluoromethyl-pyridin-3-yl)-amine] |
| < 1 µM | FC(F)(F)c1ccc(Nc2nc(CNCc3ccccn3)nc3cc(-c4ncccc4C(F)(F)F)ccc23)cn1 [Compound 578, [2-{[(Pyridin-2-ylmethyl)-amino]-methyl}-7-(3-trifluoromethyl-pyridin-2-yl)-quinazolin-4-yl]-(6-trifluoromethyl-pyridin-3-yl)-amine] |
| < 1 µM | FC(F)(F)c1ccc(Nc2nc(Cn3ccnc3)nc3cc(-c4ncccc4C(F)(F)F)ccc23)cn1 [Compound 579, [2-Imidazol-1-ylmethyl-7-(3-trifluoromethyl-pyridin-2-yl)-quinazolin-4-yl]-(6-trifluoromethyl-pyridin-3-yl)-amine] |
| < 1 µM | O=S(=O)(c1ccc(Nc2nc(CN3CCOCC3)nc3cc(-c4ncccc4C(F)(F)F)ccc23)cc1)C(F)(F)F [Compound 580, [2-Morpholin-4-ylmethyl-7-(3-trifluoromethyl-pyridin-2-yl)-quinazolin-4-yl]-(4-trifluoromethanesulfonyl-phenyl)-amine] |
| < 1 µM | CC1CN(Cc2nc(Nc3ccc(S(=O)(=O)C(F)(F)F)cc3)c3ccc(-c4ncccc4C(F)(F)F)cc3n2)CC(C)O1 (centres unmarked) [Compound 581, [2-(2,6-Dimethyl-morpholin-4-ylmethyl)-7-(3-trifluoromethyl-pyridin-2-yl)-quinazolin-4-yl]-(4-trifluoromethanesulfonyl-phenyl)-amine] |
| < 1 µM | C[C@@H]1CN(Cc2nc(Nc3ccc(S(=O)(=O)C(F)(F)F)cc3)c3ccc(-c4ncccc4C(F)(F)F)cc3n2)C[C@H](C)O1 [Compound 582, [2-(2,6-Dimethyl-morpholin-4-ylmethyl)-7-(3-trifluoromethyl-pyridin-2-yl)-quinazolin-4-yl]-(4-trifluoromethanesulfonyl-phenyl)-amine (cis)] |
| < 1 µM | CCCOC(=O)N1CCN(CCc2nc(Nc3ccc(C(F)(F)F)cc3)c3ccc(-c4ncccc4C(F)(F)F)cc3n2)CC1 [Compound 585, 4-{2-[4-(4-Trifluoromethyl-phenylamino)-7-(3-trifluoromethyl-pyridin-2-yl)-quinazolin-2-yl]-ethyl}-piperazine-1-carboxylic acid propyl ester] |
| < 1 µM | OC1CCN(CCc2nc(Nc3ccc(C(F)(F)F)cc3)c3ccc(-c4ncccc4C(F)(F)F)cc3n2)CC1 [Compound 586, [2-(4-Hydroxy-piperidin-1-ylethyl)-7-(3-trifluoromethyl-pyridin-2-yl)-quinazolin-4-yl]-(4-trifluoromethyl-phenyl)-amine] |
| < 1 µM | CC1CCCN(CCc2nc(Nc3ccc(C(F)(F)F)cc3)c3ccc(-c4ncccc4C(F)(F)F)cc3n2)C1 (centres unmarked) [Compound 587, [2-(3-Methyl-piperidin-1-ylethyl)-7-(3-trifluoromethyl-pyridin-2-yl)-quinazolin-4-yl]-(4-trifluoromethyl-phenyl)-amine] |
| < 1 µM | OC1CCCN(CCc2nc(Nc3ccc(C(F)(F)F)cc3)c3ccc(-c4ncccc4C(F)(F)F)cc3n2)C1 (centres unmarked) [Compound 588, [2-(3-Hydroxy-piperidin-1-ylethyl)-7-(3-trifluoromethyl-pyridin-2-yl)-quinazolin-4-yl]-(4-trifluoromethyl-phenyl)-amine] |
| < 1 µM | NC(=O)C1CCN(CCc2nc(Nc3ccc(C(F)(F)F)cc3)c3ccc(-c4ncccc4C(F)(F)F)cc3n2)CC1 [Compound 589, 1-{2-[4-(4-Trifluoromethyl-phenylamino)-7-(3-trifluoromethyl-pyridin-2-yl)-quinazolin-2-yl]-ethyl}-piperidine-4-carboxylic acid amide] |
| < 1 µM | CCOC(=O)C1CCCN(CCc2nc(Nc3ccc(C(F)(F)F)cc3)c3ccc(-c4ncccc4C(F)(F)F)cc3n2)C1 (centres unmarked) [Compound 590, 1-{2-[4-(4-Trifluoromethyl-phenylamino)-7-(3-trifluoromethyl-pyridin-2-yl)-quinazolin-2-yl]-ethyl}-piperidine-3-carboxylic acid ethyl ester] |
| < 1 µM | CCOC(=O)C1CCN(CCc2nc(Nc3ccc(C(F)(F)F)cc3)c3ccc(-c4ncccc4C(F)(F)F)cc3n2)CC1 [Compound 592, 1-{2-[4-(4-Trifluoromethyl-phenylamino)-7-(3-trifluoromethyl-pyridin-2-yl)-quinazolin-2-yl]-ethyl}-piperidine-4-carboxylic acid ethyl ester] |
| < 1 µM | C[C@@H]1CN(Cc2nc(Nc3ccc(S(=O)(=O)C(F)(F)F)cc3)c3ncc(-c4ncccc4C(F)(F)F)cc3n2)C[C@H](C)O1 [Compound 593, [2-(2,6-Dimethyl-morpholin-4-ylmethyl)-7-(3-trifluoromethyl-pyridin-2-yl)-pyrido[3,2-d]pyrimidin-4-yl]-(4-trifluoromethanesulfonyl-phenyl)-amine (cis)] |
| < 1 µM | CCCS(=O)(=O)c1ccc(Nc2nc(CN3C[C@@H](C)O[C@@H](C)C3)nc3cc(-c4ncccc4C(F)(F)F)cnc23)cc1 [Compound 594, [2-(2,6-Dimethyl-morpholin-4-ylmethyl)-7-(3-trifluoromethyl-pyridin-2-yl)-pyrido[3,2-d]pyrimidin-4-yl]-[4-(propane-1-sulfonyl)-phenyl]-amine (cis)] |
| < 1 µM | CC(C)S(=O)(=O)c1ccc(Nc2nc(CN3C[C@@H](C)O[C@@H](C)C3)nc3cc(-c4ncccc4C(F)(F)F)cnc23)cc1 [Compound 595, [2-(2,6-Dimethyl-morpholin-4-ylmethyl)-7-(3-trifluoromethyl-pyridin-2-yl)-pyrido[3,2-d]pyrimidin-4-yl]-[4-(propane-2-sulfonyl)-phenyl]-amine (cis)] |
| < 1 µM | C[C@@H]1CN(Cc2nc(Nc3ccc(C(F)(F)F)cc3)c3ccc(-c4ncccc4Cl)cc3n2)C[C@H](C)O1 [Compound 598, [7-(3-Chloro-pyridin-2-yl)-2-(2,6-dimethyl-morpholin-4-ylmethyl)-quinazolin-4-yl]-(4-trifluoromethyl-phenyl)-amine (cis)] |
| < 1 µM | C[C@@H]1CN(Cc2nc(Nc3ccc(C(F)(F)F)nc3)c3ccc(-c4ncccc4Cl)cc3n2)C[C@H](C)O1 [Compound 599, [7-(3-Chloro-pyridin-2-yl)-2-(2,6-dimethyl-morpholin-4-ylmethyl)-quinazolin-4-yl]-(6-trifluoromethyl-pyridin-3-yl)-amine (cis)] |
| < 1 µM | C[C@@H]1CN(Cc2nc(Nc3ccc(S(=O)(=O)C(F)(F)F)cc3)c3ccc(-c4ncccc4Cl)cc3n2)C[C@H](C)O1 [Compound 602, [7-(3-Chloro-pyridin-2-yl)-2-(2,6-dimethyl-morpholin-4-ylmethyl)-quinazolin-4-yl]-(4-trifluoromethanesulfonyl-phenyl)-amine (cis)] |
| < 1 µM | Cc1cccnc1-c1cnc2c(Nc3ccc(C(F)(F)F)cc3)nc(CN3C[C@@H](C)O[C@@H](C)C3)nc2c1 [Compound 603, [2-(2,6-Dimethyl-morpholin-4-ylmethyl)-7-(3-methyl-pyridin-2-yl)-pyrido[3,2-d]pyrimidin-4-yl]-(4-trifluoromethyl-phenyl)-amine (cis)] |
| < 1 µM | C[C@H]1CN(Cc2nc(Nc3ccc(C(F)(F)F)cc3)c3ccc(-c4ncccc4Cl)cc3n2)C[C@H](C)O1 [Compound 604, (S,S)-[7-(3-Chloro-pyridin-2-yl)-2-(2,6-dimethyl-morpholin-4-ylmethyl)-quinazolin-4-yl]-(4-trifluoromethyl-phenyl)-amine] |
| < 1 µM | C[C@H]1CN(Cc2nc(Nc3ccc(C(C)(C)C)nc3)c3ccc(-c4ncccc4Cl)cc3n2)C[C@H](C)O1 [Compound 605, (S,S)-(6-tert-Butyl-pyridin-3-yl)-[7-(3-chloro-pyridin-2-yl)-2-(2,6-dimethyl-morpholin-4-ylmethyl)-quinazolin-4-yl]-amine] |

Same assay, conditions: Table III; capsaicin receptor binding

| Ki | SMILES |
| --- | --- |
| < 1 µM | CC1CN(Cc2nc(Nc3ccc(C(C)(C)C)cc3)c3ncc(-c4ncccc4C(F)(F)F)cc3n2)CC(C)O1 (stereo not drawn) [Compound 583, (4-tert-Butyl-phenyl)-[2-(2,6-dimethyl-morpholin-4-ylmethyl)-7-(3-trifluoromethyl-pyridin-2-yl)-pyrido[3,2-d]pyrimidin-4-yl]-amine (cis)] |
